Data reported in paper PMC7914897, “Cytotoxic Potential of a-Azepano- and 3-Amino-3,4-SeCo-Triterpenoids” (International Journal of Molecular Sciences, 2021).
Where two headings read alike, the source gives them in different places.

Assays:
[1] = test system: UO-31 (Renal cancer); assay: NCI-60 screen (SRB, 48 h); conditions: Homo sapiens
[2] = test system: NCI-H460 (NSC lung cancer); assay: NCI-60 screen (SRB, 48 h); conditions: Homo sapiens
[3] = test system: Renal Cancer subpanel; assay: NCI-60 screen, subpanel; conditions: Homo sapiens
[4] = test system: SK-OV-3 (Ovarian cancer); assay: NCI-60 screen (SRB, 48 h); conditions: Homo sapiens
[5] = test system: BT-549 (Breast cancer); assay: NCI-60 screen (SRB, 48 h); type: cell-based; conditions: Homo sapiens
[6] = test system: M14 (Melanoma); assay: NCI-60 screen (SRB, 48 h); conditions: Homo sapiens
[7] = test system: DU-145 (Prostate cancer); assay: NCI-60 screen (SRB, 48 h); conditions: Homo sapiens
[8] = test system: Breast cancer subpanel; assay: NCI-60 screen, subpanel; conditions: Homo sapiens
[9] = test system: ACHN (Renal cancer); assay: NCI-60 screen (SRB, 48 h); conditions: Homo sapiens
[10] = test system: COLO 205 (Colon cancer); assay: NCI-60 screen (SRB, 48 h); conditions: Homo sapiens
[11] = test system: NSC lung cancer subpanel; assay: NCI-60 screen, subpanel; conditions: Homo sapiens
[12] = test system: MCF7 (Breast cancer); assay: NCI-60 screen (SRB, 48 h); conditions: Homo sapiens
[13] = test system: HCC-2998 (Colon cancer); assay: NCI-60 screen (SRB, 48 h); conditions: Homo sapiens
[14] = test system: PC-3 (Prostate cancer); assay: NCI-60 screen (SRB, 48 h); conditions: Homo sapiens
[15] = test system: Ovarian Cancer subpanel; assay: NCI-60 screen, subpanel; conditions: Homo sapiens
[16] = test system: Melanoma subpanel; assay: NCI-60 screen, subpanel; conditions: Homo sapiens
[17] = test system: SW-620 (Colon cancer); assay: NCI-60 screen (SRB, 48 h); conditions: Homo sapiens
[18] = test system: NCI-H226 (NSC lung cancer); assay: NCI-60 screen (SRB, 48 h); conditions: Homo sapiens
[19] = test system: OVCAR-3 (Ovarian cancer); assay: cells; conditions: Homo sapiens
[20] = test system: SNB-75 (CNS cancer); assay: NCI-60 screen (SRB, 48 h); conditions: Homo sapiens
[21] = test system: A498 (Renal cancer); assay: NCI-60 screen (SRB, 48 h); conditions: Homo sapiens
[22] = test system: NCI-H322M (NSC lung cancer); assay: NCI-60 screen (SRB, 48 h); conditions: Homo sapiens
[23] = test system: HOP-62 (NSC lung cancer); assay: NCI-60 screen (SRB, 48 h); conditions: Homo sapiens
[24] = test system: UACC-62 (Melanoma); assay: NCI-60 screen (SRB, 48 h); conditions: Homo sapiens
[25] = test system: SK-MEL-2 (Melanoma); assay: NCI-60 screen (SRB, 48 h); conditions: Homo sapiens
[26] = test system: RXF 393 (Renal cancer); assay: NCI-60 screen (SRB, 48 h); conditions: Homo sapiens
[27] = test system: LOX IMVI (Melanoma); assay: NCI-60 screen (SRB, 48 h); type: cell-based; conditions: Homo sapiens
[28] = test system: panel of approximately 60 cancer cell lines; assay: NCI-60 screen (SRB, 48 h), full panel

CC1(C)CC[C@]23CC[C@]4(C)[C@H](CC[C@@H]5[C@@]6(C)CCCNC(C)(C)[C@@H]6CC[C@]54C)[C@H]2[C@H]1OC3 [Compound 7, Azepanoallobetulin]
GI50 ([1]; UO-31): 1.56 µM
IC (TGI) ([1]; UO-31, 48 h, read-out: TGI): 3 µM
CC50 ([1]; UO-31, read-out: LC50): 5.77 µM
GI50 ([2]; NCI-H460): 0.65 µM
IC (TGI) ([2]; NCI-H460, 48 h, read-out: TGI): 2.2 µM
CC50 ([2]; NCI-H460, read-out: LC50): 6.12 µM
IC (TGI) ([3]; 48 h, read-out: TGI MG_MID): 3.22 µM
GI50 ([3]; read-out: GI50 MG_MID): 1.67 µM
CC50 ([3]; read-out: LC50 MG_MID): 6.21 µM
GI50 ([4]; SK-OV-3): 2.73 µM
IC (TGI) ([4]; SK-OV-3, 48 h, read-out: TGI): 7.93 µM
CC50 ([4]; SK-OV-3, read-out: LC50): 36.9 µM
GI50 ([5]; BT-549): 1.68 µM
IC (TGI) ([5]; BT-549, 48 h): 3.24 µM
GI50 ([6]; M14): 1.77 µM
IC (TGI) ([6]; M14, 48 h, read-out: TGI): 3.31 µM
CC50 ([6]; M14, read-out: LC50): 6.19 µM
GI50 ([7]; DU-145): 1.74 µM
IC (TGI) ([7]; DU-145, 48 h, read-out: TGI): 3.23 µM
CC50 ([7]; DU-145, read-out: LC50): 6 µM
IC (TGI) ([8]; 48 h, read-out: TGI MG_MID): 3.55 µM
GI50 ([8]; read-out: GI50 MG_MID): 1.68 µM
CC50 ([8]; read-out: LC50 MG_MID): 6.06 µM
GI50 [9]: 1.71 µM
IC (TGI) ([9]; 48 h, read-out: TGI): 3.08 µM
CC50 ([9]; read-out: LC50): 5.55 µM
GI50 ([10]; COLO 205): 1.28 µM
IC (TGI) ([10]; COLO 205, 48 h, read-out: TGI): 2.68 µM
CC50 ([10]; COLO 205, read-out: LC50): 5.61 µM
IC (TGI) ([11]; 48 h, read-out: TGI MG_MID): 3.28 µM
GI50 ([11]; read-out: GI50 MG_MID): 1.49 µM
CC50 ([11]; read-out: LC50 MG_MID): 6.73 µM
GI50 ([12]; MCF7): 1.44 µM
IC (TGI) ([12]; MCF7, 48 h, read-out: TGI): 3.01 µM
CC50 ([12]; MCF7, read-out: LC50): 6.3 µM
GI50 ([13]; HCC 2998): 1.54 µM
IC (TGI) ([13]; HCC 2998, 48 h, read-out: TGI): 2.97 µM
CC50 ([13]; HCC 2998, read-out: LC50): 5.72 µM
GI50 ([14]; PC-3): 1.61 µM
IC (TGI) ([14]; PC-3, 48 h, read-out: TGI): 3.17 µM
CC50 ([14]; PC-3, read-out: LC50): 6.25 µM
IC (TGI) ([15]; 48 h, read-out: TGI MG_MID): 3.99 µM
GI50 ([15]; read-out: GI50 MG_MID): 1.86 µM
CC50 ([15]; read-out: LC50 MG_MID): 12.3 µM
IC (TGI) ([16]; 48 h, read-out: TGI MG_MID): 3.37 µM
GI50 ([16]; read-out: GI50 MG_MID): 1.76 µM
CC50 ([16]; read-out: LC50 MG_MID): 6.52 µM
GI50 ([17]; SW-620): 1.75 µM
IC (TGI) ([17]; SW-620, 48 h, read-out: TGI): 3.49 µM
CC50 ([17]; SW-620, read-out: LC50): 6.95 µM
GI50 ([18]; NCI-H226): 1.7 µM
IC (TGI) ([18]; NCI-H226, 48 h, read-out: TGI): 3.47 µM
CC50 ([18]; NCI-H226, read-out: LC50): 7.09 µM
GI50 ([19]; OVCAR-3): 1.62 µM
IC (TGI) ([19]; OVCAR-3, 48 h, read-out: TGI): 3.1 µM
CC50 ([19]; OVCAR-3, read-out: LC50): 5.94 µM
GI50 ([20]; SNB-75): 1.5 µM
IC (TGI) ([20]; SNB-75, 48 h, read-out: TGI): 2.94 µM
CC50 ([20]; SNB-75, read-out: LC50): 5.76 µM
GI50 ([21]; A498): 1.68 µM
IC (TGI) ([21]; A498, 48 h, read-out: TGI): 3.67 µM
CC50 ([21]; A498, read-out: LC50): 8 µM
GI50 [22]: 1.64 µM
IC (TGI) ([22]; 48 h, read-out: TGI): 3.03 µM
CC50 ([22]; read-out: LC50): 5.6 µM
GI50 ([23]; HOP-62): 1.91 µM
IC (TGI) ([23]; HOP-62, 48 h, read-out: TGI): 3.75 µM
CC50 ([23]; HOP-62, read-out: LC50): 7.34 µM
GI50 ([24]; UACC-62): 1.79 µM
IC (TGI) ([24]; UACC-62, 48 h, read-out: TGI): 3.21 µM
CC50 ([24]; UACC-62, read-out: LC50): 5.77 µM
GI50 ([25]; SK-MEL-2): 1.95 µM
IC (TGI) ([25]; SK-MEL-2, 48 h, read-out: TGI): 4.09 µM
CC50 ([25]; SK-MEL-2, read-out: LC50): 8.57 µM
GI50 ([26]; RXF 393): 1.56 µM
IC (TGI) ([26]; RXF 393, 48 h, read-out: TGI): 2.98 µM
CC50 ([26]; RXF 393, read-out: LC50): 5.69 µM
IC (TGI) ([27]; 48 h): 3.08 µM
activity at 10 µM ([27]; 48 h, 1 dose 10 µM, read-out: Growth % of the Most Sensitive Cell Lines): -94.9%
GI50 ([27]; read-out: GI50): 1.6 µM
Positive Cytostatic Effect (cell lines with percent growth 0 to 50 / total) ([28]; 1 dose 10 µM): 16/59
Positive Cytotoxic Effect (cell lines with percent growth < 0 / total) ([28]; 1 dose 10 µM): 41/58
number of cancer cell lines the compound was active against ([28]; 1 dose 10 µM): 52 cell lines
activity at 10 µM ([28]; Homo sapiens, 48 h, read-out: Mean Growth, %): -27.3%
activity at 10 µM ([28]; Homo sapiens, 48 h, read-out: Range of Growth, %): -99.4 to 76.4%
IC (TGI) ([28]; Homo sapiens, 48 h, read-out: TGI MG_MID60, average over all cell lines): 3.64 µM
GI50 ([28]; Homo sapiens, read-out: GI50 MG_MID60): 1.68 µM
GI50 ([28]; Homo sapiens, read-out: GI50 against all human tumor cell lines): < 3 µM
GI50 ([28]; Homo sapiens, read-out: GI50 against the most sensitive cell lines): 0.2 to 0.94 µM
CC50 ([28]; Homo sapiens, read-out: LC50 MG_MID60, average over all cell lines): 17.2 µM
